pIC50: −log10 of the molar value.
What was measured:
Estrogen receptor beta [1] = target: T1, Estrogen receptor beta (Homo sapiens, UniProt Q92731)
Description: Binding affinity towards human recombinant Estrogen receptor beta was determined

Estrogen receptor [2] = target: T2, Estrogen receptor (Homo sapiens, UniProt P03372)
T2 sequence (P03372 whole entry): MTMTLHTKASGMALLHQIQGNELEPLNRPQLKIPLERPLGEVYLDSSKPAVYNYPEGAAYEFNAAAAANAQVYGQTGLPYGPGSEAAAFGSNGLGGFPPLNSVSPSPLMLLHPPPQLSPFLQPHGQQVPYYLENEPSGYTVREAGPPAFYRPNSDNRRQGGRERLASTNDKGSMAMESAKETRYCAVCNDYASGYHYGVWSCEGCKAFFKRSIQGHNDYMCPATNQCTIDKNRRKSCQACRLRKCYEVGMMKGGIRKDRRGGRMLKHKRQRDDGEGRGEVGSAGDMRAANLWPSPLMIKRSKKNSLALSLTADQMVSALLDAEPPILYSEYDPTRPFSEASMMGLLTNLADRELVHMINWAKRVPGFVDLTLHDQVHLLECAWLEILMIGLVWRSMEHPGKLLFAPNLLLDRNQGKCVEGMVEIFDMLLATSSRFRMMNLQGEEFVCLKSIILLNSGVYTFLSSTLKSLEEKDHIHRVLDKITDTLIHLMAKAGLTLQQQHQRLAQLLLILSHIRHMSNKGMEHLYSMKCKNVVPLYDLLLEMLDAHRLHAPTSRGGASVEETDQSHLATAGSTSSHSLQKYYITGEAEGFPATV
Description: Binding affinity towards human recombinant Estrogen receptor alpha was determined

Estrogen receptor [3] = target: T2, Estrogen receptor; assay: In vitro binding affinity for Estrogen receptor alpha in HEK293 cells; type: cell-based
[4] = target: T3, Estrogen receptor (Rattus norvegicus) (UniProt P06211+Q62986); conditions: at 1 mg/kg
Description: Anti-uterotrophic activity in rats after 1 mg/kg subcutaneous dose for 3 days without estradiol

[5] = target: T3, Estrogen receptor (Rattus norvegicus); conditions: at 1 mg/kg; remark: listed apart in the source
Description: (§1) Anti-uterotrophic activity in rats after 1 mg/kg subcutaneous dose for 3 days with estradiol

Estrogen receptor beta [6] = target: T1, Estrogen receptor beta; assay: biochemical
Description: In vitro binding affinity for Estrogen receptor beta in HEK293 cells

[7] = target: T3, Estrogen receptor (Rattus norvegicus); conditions: Uterus, at 1 mg/kg
Description: Uterotrophic activity in rats after 1 mg/kg peroral dose for 3 days without estradiol

[8] = target: T3, Estrogen receptor (Rattus norvegicus); conditions: at 1 mg/kg; remark: listed apart in the source
Description: as §1

[9] = target: T3, Estrogen receptor (Rattus norvegicus); conditions: Uterus, at 0.3 mg/kg
Description: Uterotrophic activity in rats after 0.3 mg/kg peroral dose for 3 days with estradiol

T1 sequence (Q92731 whole entry): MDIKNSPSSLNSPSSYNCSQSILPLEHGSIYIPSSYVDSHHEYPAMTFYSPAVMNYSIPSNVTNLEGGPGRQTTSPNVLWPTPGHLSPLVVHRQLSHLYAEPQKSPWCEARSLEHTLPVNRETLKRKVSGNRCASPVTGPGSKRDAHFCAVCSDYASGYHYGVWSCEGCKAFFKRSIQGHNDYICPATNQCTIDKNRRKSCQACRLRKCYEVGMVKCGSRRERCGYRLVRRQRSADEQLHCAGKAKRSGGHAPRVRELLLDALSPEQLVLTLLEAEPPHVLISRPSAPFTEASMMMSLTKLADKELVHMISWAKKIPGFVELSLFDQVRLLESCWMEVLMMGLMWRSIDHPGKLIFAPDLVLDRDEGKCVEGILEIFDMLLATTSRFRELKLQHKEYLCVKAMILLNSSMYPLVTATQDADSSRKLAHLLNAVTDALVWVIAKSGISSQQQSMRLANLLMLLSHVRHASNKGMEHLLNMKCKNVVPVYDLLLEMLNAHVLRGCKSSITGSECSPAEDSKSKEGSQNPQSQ

| pIC50 (Estrogen receptor beta [1]) | pIC50 (Estrogen receptor [2]) | inhibition [5] [%] | Compound | further results |
| --- | --- | --- | --- | --- |
| 5.56 | 7.41 |  | O=C1c2ccc(O)cc2O[C@H](c2ccc(OCCN3CCCCC3)cc2)[C@@H]1c1ccc(O)cc1 |  |
| 7.35 | 8.80 |  | Oc1ccc([C@@H]2Sc3ccc(O)cc3O[C@@H]2c2ccc(OCCN3CCCCC3)cc2)cc1 |  |
| 8.29 | 8.80 | 55 | Oc1ccc(C2=C(c3ccc(OCCN4CCCCC4)cc3)Oc3ccc(O)cc3S2)cc1 | pIC50 (Estrogen receptor [3]): 8.29; Control [4]: 45%; pIC50 (Estrogen receptor beta [6]): 6.80 |
| 7.15 | 8.00 |  | Oc1ccc([C@@H]2Sc3ccccc3O[C@@H]2c2ccc(OCCN3CCCCC3)cc2)cc1 |  |
| 6.74 | 8.21 |  | Oc1ccc2c(c1)S[C@@H](c1ccccc1)[C@@H](c1ccc(OCCN3CCCCC3)cc1)O2 |  |
|  |  |  | Oc1ccc([C@H]2Sc3cc(O)ccc3O[C@H]2c2ccc(OCCN3CCCCC3)cc2)cc1 | Control [7]: 9%; inhibition [8]: 0.4%; inhibition [9]: 11.4% |
|  |  | 77 | Oc1ccc([C@@H]2Sc3cc(O)ccc3O[C@H]2c2ccc(OCCN3CCCCC3)cc2)cc1 (racemic) | Control [4]: 5% |
| < 4.00 | < 4.00 |  | [O-][S+]1c2cc(O)ccc2O[C@H](c2ccc(OCCN3CCCCC3)cc2)[C@@H]1c1ccc(O)cc1 (stereo partly specified) |  |
|  |  | 16 | Oc1ccc([C@@H]2Sc3cc(O)ccc3O[C@@H]2c2ccc(OCCN3CCCCC3)cc2)cc1 (stereo in doubt; 4-L) |  |
|  |  | 18 | Oc1ccc([C@@H]2Sc3cc(O)ccc3O[C@@H]2c2ccc(OCCN3CCCCC3)cc2)cc1 (racemic) | Control [4]: 20% |
| 5.23 | 5.96 |  | O=S1(=O)c2cc(O)ccc2O[C@H](c2ccc(OCCN3CCCCC3)cc2)[C@@H]1c1ccc(O)cc1 |  |

— ChEMBL document CHEMBL1149328, “Estrogen receptor ligands. II. Discovery of benzoxathiins as potent, selective estrogen receptor alpha modulators” (J Med Chem, 2004)
